# From publication PMC5218480 (PLoS ONE, 2017)
# System: MV-4-11 cells
# Test: Gene expression microarray analysis (Affymetrix PrimeView) and GSEA
# Assay type: cell-based, human
# Design: RFU PODN (11730768_x_at) / Fold change /veh PODN (11730768_x_at) / RFU LINC00158 (11744669_a_at) / Fold change /veh LINC00158 (11744669_a_at) / RFU DUSP10 (11751237_a_at) / Fold change /veh DUSP10 (11751237_a_at) / RFU ID3 (11757404_x_at) / Fold change /veh ID3 (11757404_x_at) / RFU PLEKHG5 (11737974_s_at) / Fold change /veh PLEKHG5 (11737974_s_at) / RFU LRRC4B (11730491_at) / Fold change /veh LRRC4B (11730491_at) / RFU GIMAP4 (11747438_a_at) / Fold change /veh GIMAP4 (11747438_a_at) / RFU KRT8 (11758183_x_at) / Fold change /veh KRT8 (11758183_x_at) / RFU CNN1 (11734310_a_at) / Fold change /veh CNN1 (11734310_a_at) / RFU VPS37D (11726825_at) / Fold change /veh VPS37D (11726825_at) / RFU C10orf10 (11716522_x_at) / Fold change /veh C10orf10 (11716522_x_at) / RFU KIR2DL2 /// KIR2DL4 /// KIR2DL5A /// KIR2DL5B /// KIR2DS1 /// KIR2DS2 /// KIR2DS3 /// KIR2DS4 /// KIR3DL3 /// KIR3DL3 /// KIR3DS1 (11738374_at) / Fold change /veh KIR2DL2 /// KIR2DL4 /// KIR2DL5A /// KIR2DL5B /// KIR2DS1 /// KIR2DS2 /// KIR2DS3 /// KIR2DS4 /// KIR3DL3 /// KIR3DL3 /// KIR3DS1 (11738374_at) / RFU C1QL1 (11718748_at) / Fold change /veh C1QL1 (11718748_at) / RFU TMPRSS4 (11747572_a_at) / Fold change /veh TMPRSS4 (11747572_a_at) / RFU HAMP (11756126_x_at) / Fold change /veh HAMP (11756126_x_at) / RFU RNFT2 (11725882_a_at) / Fold change /veh RNFT2 (11725882_a_at) / RFU NR4A2 (11747474_a_at) / Fold change /veh NR4A2 (11747474_a_at) / RFU ABCC12 (11746883_a_at) / Fold change /veh ABCC12 (11746883_a_at) / RFU TMEM136 (11760407_x_at) / Fold change /veh TMEM136 (11760407_x_at) / RFU CLDN22 /// WWC2 (11732394_at) / Fold change /veh CLDN22 /// WWC2 (11732394_at) / RFU HLA-DPB1 (11760878_x_at) / Fold change /veh HLA-DPB1 (11760878_x_at) / RFU SPINT1 (11716480_a_at) / Fold change /veh SPINT1 (11716480_a_at) / RFU GAP43 (11754022_s_at) / Fold change /veh GAP43 (11754022_s_at) / RFU A4GNT (11735810_at) / Fold change /veh A4GNT (11735810_at) / RFU PRB3 (11715151_x_at) / Fold change /veh PRB3 (11715151_x_at) / RFU TUBB4B (11761932_at) / Fold change /veh TUBB4B (11761932_at) / RFU CAPN14 (11732068_a_at) / Fold change /veh CAPN14 (11732068_a_at) / RFU TMCC2 (11721928_a_at) / Fold change /veh TMCC2 (11721928_a_at) / RFU IRGQ (11745062_a_at) / Fold change /veh IRGQ (11745062_a_at) / RFU FAM174B (11720279_a_at) / Fold change /veh FAM174B (11720279_a_at) / RFU TMPRSS4 (11748680_a_at) / Fold change /veh TMPRSS4 (11748680_a_at) / RFU FAM212B (11763350_a_at) / Fold change /veh FAM212B (11763350_a_at) / RFU PLEKHG5 (11743358_a_at) / Fold change /veh PLEKHG5 (11743358_a_at) / RFU ZSCAN30 (11745921_a_at) / Fold change /veh ZSCAN30 (11745921_a_at) / RFU CMKLR1 (11741424_a_at) / Fold change /veh CMKLR1 (11741424_a_at) / RFU LOC101060620 /// MAPK8IP1 (11723275_at) / Fold change /veh LOC101060620 /// MAPK8IP1 (11723275_at) / RFU SPTSSB (11747773_x_at) / Fold change /veh SPTSSB (11747773_x_at) / RFU PRSS12 (11739890_at) / Fold change /veh PRSS12 (11739890_at) / RFU BIN1 (11741810_x_at) / Fold change /veh BIN1 (11741810_x_at) / RFU WNT11 (11732464_a_at) / Fold change /veh WNT11 (11732464_a_at) / RFU C10orf10 (11716521_a_at) / Fold change /veh C10orf10 (11716521_a_at) / RFU C5orf56 (11738089_at) / Fold change /veh C5orf56 (11738089_at) / RFU CYB561 (11721691_x_at) / Fold change /veh CYB561 (11721691_x_at) / RFU ANKRD19P (11752326_a_at) / Fold change /veh ANKRD19P (11752326_a_at) / RFU OR2T12 /// OR2T33 /// OR2T8 (11738714_s_at) / Fold change /veh OR2T12 /// OR2T33 /// OR2T8 (11738714_s_at) / RFU VCAN (11748164_a_at) / Fold change /veh VCAN (11748164_a_at) / RFU JSRP1 (11732532_at) / Fold change /veh JSRP1 (11732532_at) / RFU KRTAP10-11 (11738290_x_at) / Fold change /veh KRTAP10-11 (11738290_x_at) / RFU MYO3A (11730013_a_at) / Fold change /veh MYO3A (11730013_a_at) / RFU EBF3 (11725865_a_at) / Fold change /veh EBF3 (11725865_a_at) / RFU CAMK2N1 (11719241_x_at) / Fold change /veh CAMK2N1 (11719241_x_at) / RFU C5orf56 (11738088_a_at) / Fold change /veh C5orf56 (11738088_a_at) / RFU OLFML3 (11715873_a_at) / Fold change /veh OLFML3 (11715873_a_at) / RFU LOC100653217 /// NTM (11731650_a_at) / Fold change /veh LOC100653217 /// NTM (11731650_a_at) / RFU MAPK11 (11762145_a_at) / Fold change /veh MAPK11 (11762145_a_at) / RFU FIZ1 (11724087_x_at) / Fold change /veh FIZ1 (11724087_x_at) / RFU OASL (11726364_x_at) / Fold change /veh OASL (11726364_x_at) / RFU SOX15 (11748057_x_at) / Fold change /veh SOX15 (11748057_x_at) / RFU CD79A (11719716_a_at) / Fold change /veh CD79A (11719716_a_at) / RFU HIST1H1D (11736915_at) / Fold change /veh HIST1H1D (11736915_at) / RFU CASKIN2 (11723855_a_at) / Fold change /veh CASKIN2 (11723855_a_at) / RFU LOC730098 (11760151_x_at) / Fold change /veh LOC730098 (11760151_x_at) / RFU OR4N2 (11742367_at) / Fold change /veh OR4N2 (11742367_at) / RFU PRRT2 (11749266_a_at) / Fold change /veh PRRT2 (11749266_a_at) / RFU SNX32 (11753110_a_at) / Fold change /veh SNX32 (11753110_a_at) / RFU CDHR5 (11726645_a_at) / Fold change /veh CDHR5 (11726645_a_at) / RFU RCAN1 (11760418_a_at) / Fold change /veh RCAN1 (11760418_a_at) / RFU FAM167A (11723789_a_at) / Fold change /veh FAM167A (11723789_a_at) / RFU FAM26E (11764081_at) / Fold change /veh FAM26E (11764081_at) / RFU ISYNA1 (11749810_s_at) / Fold change /veh ISYNA1 (11749810_s_at) / RFU ACY1 (11761880_at) / Fold change /veh ACY1 (11761880_at) / RFU 11764098_at / Fold change /veh 11764098_at / RFU SAMD14 (11745864_x_at) / Fold change /veh SAMD14 (11745864_x_at) / RFU NPB (11741838_a_at) / Fold change /veh NPB (11741838_a_at) / RFU TMPRSS6 (11731388_a_at) / Fold change /veh TMPRSS6 (11731388_a_at) / RFU KRTAP10-2 (11738614_at) / Fold change /veh KRTAP10-2 (11738614_at) / RFU ARHGAP8 /// PRR5-ARHGAP8 (11727945_x_at) / Fold change /veh ARHGAP8 /// PRR5-ARHGAP8 (11727945_x_at) / RFU KRTAP5-7 /// NADSYN1 (11734609_at) / Fold change /veh KRTAP5-7 /// NADSYN1 (11734609_at) / RFU RASL12 (11751679_a_at) / Fold change /veh RASL12 (11751679_a_at) / RFU CDKN2B (11736163_a_at) / Fold change /veh CDKN2B (11736163_a_at) / RFU PRF1 (11729649_at) / Fold change /veh PRF1 (11729649_at) / RFU, ZNF638 /// ZNF638-IT1 / Fold change vs veh, ZNF638 /// ZNF638-IT1 / RFU, PANK3 / Fold change vs veh, PANK3 / RFU, SH3YL1 / Fold change vs veh, SH3YL1 / RFU, ZEB2 / Fold change vs veh, ZEB2 / RFU, NRIP1 / Fold change vs veh, NRIP1 / RFU, PTTG1IP / Fold change vs veh, PTTG1IP / RFU, CAPN2 / Fold change vs veh, CAPN2 / RFU, MED14 / Fold change vs veh, MED14 / RFU, SNORA58 / Fold change vs veh, SNORA58 / RFU, C1orf63 / Fold change vs veh, C1orf63 / RFU, LRRFIP1 / Fold change vs veh, LRRFIP1 / RFU, NDUFAF7 / Fold change vs veh, NDUFAF7 / RFU, SLC12A2 / Fold change vs veh, SLC12A2 / RFU, IBTK / Fold change vs veh, IBTK / RFU, ESF1 / Fold change vs veh, ESF1 / Fold change vs veh, TMEM50B / RFU, TAOK1 / Fold change vs veh, TAOK1 / RFU, ACBD3 / Fold change vs veh, ACBD3 / RFU, TMA16 / Fold change vs veh, TMA16 / RFU, RWDD3 / Fold change vs veh, RWDD3 / RFU, BCAT1 / Fold change vs veh, BCAT1 / RFU, EDEM3 / Fold change vs veh, EDEM3 / RFU, TMEM33 / Fold change vs veh, TMEM33 / RFU, WDR75 / Fold change vs veh, WDR75 / RFU, AHCTF1 / Fold change vs veh, AHCTF1 / RFU, TFRC / Fold change vs veh, TFRC / RFU, ZDHHC17 / Fold change vs veh, ZDHHC17 / RFU, NOM1 / Fold change vs veh, NOM1 / RFU, ARL8B / Fold change vs veh, ARL8B / RFU, ZBTB11 / Fold change vs veh, ZBTB11 / RFU, TAMM41 / Fold change vs veh, TAMM41 / RFU, KIAA1704 /// LOC100996395 / Fold change vs veh, KIAA1704 /// LOC100996395 / RFU, ING1 / Fold change vs veh, ING1 / RFU, TRMT61B / Fold change vs veh, TRMT61B / RFU, FUBP3 / Fold change vs veh, FUBP3 / RFU, TP53 / Fold change vs veh, TP53 / RFU, TNKS2 / Fold change vs veh, TNKS2 / RFU, ZFP14 / Fold change vs veh, ZFP14 / RFU, ACTR2 / Fold change vs veh, ACTR2 / RFU, PPP3R1 / Fold change vs veh, PPP3R1 / RFU, PIK3R1 / Fold change vs veh, PIK3R1 / RFU, HNRNPA1 / Fold change vs veh, HNRNPA1 / RFU, RNF170 / Fold change vs veh, RNF170 / RFU, ZNF28 / Fold change vs veh, ZNF28 / RFU, RNGTT / Fold change vs veh, RNGTT / RFU, OGT / Fold change vs veh, OGT / RFU, BRD1 / Fold change vs veh, BRD1 / RFU, MARS / Fold change vs veh, MARS / RFU, ZNF655 / Fold change vs veh, ZNF655 / RFU, FAHD1 / Fold change vs veh, FAHD1 / RFU, BDP1 / Fold change vs veh, BDP1 / RFU, LRRCC1 / Fold change vs veh, LRRCC1 / RFU, ARID1A / Fold change vs veh, ARID1A / RFU, ZNF146 / Fold change vs veh, ZNF146 / RFU, ZNF330 / Fold change vs veh, ZNF330 / RFU, GPN3 / Fold change vs veh, GPN3 / RFU, C9orf123 / Fold change vs veh, C9orf123 / RFU, N4BP2L2 / Fold change vs veh, N4BP2L2 / RFU, ARFIP1 / Fold change vs veh, ARFIP1 / RFU, FAM179B / Fold change vs veh, FAM179B / RFU, BCL10 / Fold change vs veh, BCL10 / RFU, UHRF1BP1L / Fold change vs veh, UHRF1BP1L / RFU, BET1 / Fold change vs veh, BET1 / RFU, CNOT2 / Fold change vs veh, CNOT2 / RFU, ZNF268 / Fold change vs veh, ZNF268 / Fold change vs veh, ZNF507 / RFU, DGCR2 / Fold change vs veh, DGCR2 / RFU, WDSUB1 / Fold change vs veh, WDSUB1 / Fold change vs veh, HSP90B1 /// MIR3652 / RFU, ADSS / Fold change vs veh, ADSS / RFU, GK / Fold change vs veh, GK / RFU, ZNF148 / Fold change vs veh, ZNF148 / RFU, TAF9 / Fold change vs veh, TAF9 / RFU, SLC1A5 / Fold change vs veh, SLC1A5 / RFU, SLMO2 / Fold change vs veh, SLMO2 / RFU, ABCC4 / Fold change vs veh, ABCC4 / RFU, LOC101060439 /// RAP1B / Fold change vs veh, LOC101060439 /// RAP1B / RFU, RFX7 / Fold change vs veh, RFX7 / RFU, GTPBP10 / Fold change vs veh, GTPBP10 / RFU, CNEP1R1 / Fold change vs veh, CNEP1R1 / RFU, BIVM-ERCC5 /// ERCC5 / Fold change vs veh, BIVM-ERCC5 /// ERCC5 / RFU, ILF3 / Fold change vs veh, ILF3 / RFU 11762660_at / Fold change /veh 11762660_at / RFU VCAN (11757783_s_at) / Fold change /veh VCAN (11757783_s_at) / RFU DDX43 (11728927_at) / Fold change /veh DDX43 (11728927_at) / RFU KRT8 (11758188_x_at) / Fold change /veh KRT8 (11758188_x_at) / RFU NKD1 (11759106_at) / Fold change /veh NKD1 (11759106_at) / RFU SRD5A1 (11742802_a_at) / Fold change /veh SRD5A1 (11742802_a_at) / RFU TPSAB1 /// TPSB2 (11721975_s_at) / Fold change /veh TPSAB1 /// TPSB2 (11721975_s_at) / RFU GSTM3 (11746129_a_at) / Fold change /veh GSTM3 (11746129_a_at) / RFU IL23R (11737362_x_at) / Fold change /veh IL23R (11737362_x_at) / RFU TMEM51 (11727254_a_at) / Fold change /veh TMEM51 (11727254_a_at) / RFU PIWIL2 (11732686_x_at) / Fold change /veh PIWIL2 (11732686_x_at) / RFU ORM1 (11744905_x_at) / Fold change /veh ORM1 (11744905_x_at) / RFU CCDC152 (11743942_at) / Fold change /veh CCDC152 (11743942_at) / RFU ECM1 (11717891_a_at) / Fold change /veh ECM1 (11717891_a_at) / RFU IL23R (11748794_a_at) / Fold change /veh IL23R (11748794_a_at) / RFU TNFAIP8L3 (11732012_x_at) / Fold change /veh TNFAIP8L3 (11732012_x_at) / RFU MBOAT4 (11741988_at) / Fold change /veh MBOAT4 (11741988_at) / RFU 11764193_at / Fold change /veh 11764193_at / RFU TMEM53 (11763286_at) / Fold change /veh TMEM53 (11763286_at) / RFU MAGEB2 (11727129_at) / Fold change /veh MAGEB2 (11727129_at) / RFU TMEM200A (11744735_a_at) / Fold change /veh TMEM200A (11744735_a_at) / RFU CCDC152 (11751479_a_at) / Fold change /veh CCDC152 (11751479_a_at) / RFU FAM211A (11726209_a_at) / Fold change /veh FAM211A (11726209_a_at) / RFU RGS16 (11746705_a_at) / Fold change /veh RGS16 (11746705_a_at) / RFU VCAN (11755009_s_at) / Fold change /veh VCAN (11755009_s_at) / RFU RHOB (11743442_s_at) / Fold change /veh RHOB (11743442_s_at) / RFU RGS16 (11720943_a_at) / Fold change /veh RGS16 (11720943_a_at) / RFU RGS16 (11720944_at) / Fold change /veh RGS16 (11720944_at) / RFU, VPS4B / Fold change vs veh, VPS4B / RFU, CREB1 / Fold change vs veh, CREB1 / RFU, DNAJC13 / Fold change vs veh, DNAJC13 / RFU, GNAQ / Fold change vs veh, GNAQ / RFU, CDK5R1 / Fold change vs veh, CDK5R1 / RFU, ZRANB3 / Fold change vs veh, ZRANB3 / RFU, CUL4A / Fold change vs veh, CUL4A / RFU, CCNY / Fold change vs veh, CCNY / RFU, UFL1 / Fold change vs veh, UFL1 / RFU, COG3 / Fold change vs veh, COG3 / RFU, DIAPH2 / Fold change vs veh, DIAPH2 / RFU, SKA2 / Fold change vs veh, SKA2 / RFU, AFF3 / Fold change vs veh, AFF3 / RFU, LMF1 / Fold change vs veh, LMF1 / RFU, IPO11 / Fold change vs veh, IPO11 / RFU, DFFB / Fold change vs veh, DFFB / RFU, FOXP1 / Fold change vs veh, FOXP1 / RFU, CARD8 / Fold change vs veh, CARD8 / RFU, STRN3 / Fold change vs veh, STRN3 / RFU, ADK / Fold change vs veh, ADK / RFU, RASSF2 / Fold change vs veh, RASSF2 / RFU, WIPF1 / Fold change vs veh, WIPF1 / RFU, LARP1B / Fold change vs veh, LARP1B / RFU, RASA1 / Fold change vs veh, RASA1 / RFU, RB1 / Fold change vs veh, RB1 / RFU, PPFIA1 / Fold change vs veh, PPFIA1 / RFU, MAT2A / Fold change vs veh, MAT2A / RFU, CCT5 / Fold change vs veh, CCT5 / RFU, WDR92 / Fold change vs veh, WDR92 / RFU, CUX1 / Fold change vs veh, CUX1 / RFU, TTC7A / Fold change vs veh, TTC7A / RFU, TMEM135 / Fold change vs veh, TMEM135 / RFU, DEPTOR / Fold change vs veh, DEPTOR / RFU, CPM / Fold change vs veh, CPM / RFU, DNAJB6 / Fold change vs veh, DNAJB6 / RFU, CACNA2D3 / Fold change vs veh, CACNA2D3 / RFU, DTX4 / Fold change vs veh, DTX4 / RFU, TFCP2 / Fold change vs veh, TFCP2 / RFU, GMCL1 /// GMCL1P1 / Fold change vs veh, GMCL1 /// GMCL1P1 / RFU, AEBP2 / Fold change vs veh, AEBP2 / RFU, SNHG1 /// SNORD22 /// SNORD25 /// SNORD26 /// SNORD27 /// SNORD28 /// SNORD29 /// SNORD31 / Fold change vs veh, SNHG1 /// SNORD22 /// SNORD25 /// SNORD26 /// SNORD27 /// SNORD28 /// SNORD29 /// SNORD31 / Fold change (Aza/veh), C12orf56 (ProbeSet 11735607_a_at) / Fold change (ACY-1035/veh), C12orf56 (ProbeSet 11735607_a_at) / Fold change (Aza/veh), FGFR1OP (ProbeSet 11751329_s_at) / Fold change (ACY-1035/veh), FGFR1OP (ProbeSet 11751329_s_at) / Fold change (Aza/veh), VPS36 (ProbeSet 11739960_a_at) / Fold change (ACY-1035/veh), VPS36 (ProbeSet 11739960_a_at) / RFU SYPL1 (11715823_x_at) / Fold change /veh SYPL1 (11715823_x_at) / RFU IGFBP7 (11715501_s_at) / Fold change /veh IGFBP7 (11715501_s_at) / RFU REEP3 (11722064_at) / Fold change /veh REEP3 (11722064_at) / RFU IGLL1 (11728026_x_at) / Fold change /veh IGLL1 (11728026_x_at): dose or concentration left out as unconfirmed
# Conditions: MV-4-11 cells, 48 hours
compound,measurement,value
Nc1ncn([C@@H]2O[C@H](CO)[C@@H](O)[C@H]2O)c(=O)n1 [azacitidine],Fold change /veh FIZ1 (11724087_x_at),1.09
